Assay [1] relates to Staphylococcus aureus. The experiment in a line: Potentiation of […] antibacterial activity against Staphylococcus aureus XU212 assessed as tetracycline MIC at 64 mg/L by broth dilution assay (reference value: […]). The format is functional. In general terms: In broth dilution the organism is exposed to a series of concentrations in liquid medium.
Assay [2] has as its system Staphylococcus aureus. Briefly: Antibacterial activity against Staphylococcus aureus 1199B assessed as inhibition of efflux pump by measuring increase in intracellular accumulation of ethidium bromide at 0.25 times of MIC after 30 mins by fluorescence assay. It is filed as functional, organism-based.
Assay [3] relates to Staphylococcus aureus. Briefly: Potentiation of norfloxacin-induced antibacterial activity against Staphylococcus aureus 1199B assessed as fold reduction in norfloxacin MIC at 64 mg/L by broth dilution assay relative to norfloxacin alone. The format is functional.
Assay [4] has as its system Staphylococcus aureus. The experiment in a line: Potentiation of […] antibacterial activity against Staphylococcus aureus XU212 assessed as fold reduction in tetracycline MIC at 64 mg/L by broth dilution assay relative to tetracycline alone. It is filed as functional.
In assay [5] the test system is Staphylococcus aureus. Briefly: Potentiation of norfloxacin-induced antibacterial activity against Staphylococcus aureus 1199B assessed as norfloxacin MIC at 64 mg/L by broth dilution assay (reference value: 32 mg/L). The format is functional.
In assay [6] the test system is Staphylococcus aureus. The experiment in a line: Potentiation of norfloxacin-induced antibacterial activity against Staphylococcus aureus 1199B assessed as norfloxacin MIC at 100 mg/L by broth dilution assay (reference value: 32 mg/L). The format is functional.
Assay [7] deals with Staphylococcus aureus. The experiment in a line: Potentiation of […] antibacterial activity against Staphylococcus aureus XU212 assessed as tetracycline MIC at 100 mg/L by broth dilution assay (reference value: […]). It is filed as functional.
In assay [8] the test system is Staphylococcus aureus. Briefly: Potentiation of norfloxacin-induced antibacterial activity against Staphylococcus aureus 1199B assessed as fold reduction in norfloxacin MIC at 100 mg/L by broth dilution assay relative to norfloxacin alone. The format is functional.
Assay [9] relates to Staphylococcus aureus. The experiment in a line: Potentiation of […] antibacterial activity against Staphylococcus aureus XU212 assessed as fold reduction in tetracycline MIC at 100 mg/L by broth dilution assay relative to tetracycline alone. The format is functional.
The test system of assay [10] is Staphylococcus aureus. Briefly: Potentiation of norfloxacin-induced antibacterial activity against Staphylococcus aureus 1199B assessed as norfloxacin MIC at 20 mg/L by broth dilution assay (reference value: 32 mg/L). The format is functional.
In assay [11] the test system is Staphylococcus aureus. The experiment in a line: Potentiation of […] antibacterial activity against Staphylococcus aureus XU212 assessed as fold reduction in tetracycline MIC at 20 mg/L by broth dilution assay relative to tetracycline alone. It is filed as functional.
The subject of assay [12] is Staphylococcus aureus. The experiment in a line: Antibacterial activity against Staphylococcus aureus 1199B assessed as inhibition of efflux pump by measuring increase in intracellular accumulation of ethidium bromide after 30 mins by fluorescence assay. The format is functional, organism-based.
In assay [13] the test system is Staphylococcus aureus. Briefly: Potentiation of […] antibacterial activity against Staphylococcus aureus XU212 assessed as tetracycline MIC at 20 mg/L by broth dilution assay (reference value: […]). The format is functional.
The subject of assay [14] is Staphylococcus aureus. Briefly: Potentiation of norfloxacin-induced antibacterial activity against Staphylococcus aureus 1199B assessed as fold reduction in norfloxacin MIC at 20 mg/L by broth dilution assay relative to norfloxacin alone. It is filed as functional.
For assay [15], the system named is Staphylococcus aureus. The experiment in a line: Potentiation of norfloxacin-induced antibacterial activity against Staphylococcus aureus 1199B assessed as norfloxacin MIC at 30 mg/L by broth dilution assay (reference value: 32 mg/L). It is filed as functional.
Assay [16] concerns Staphylococcus aureus. The experiment in a line: Potentiation of […] antibacterial activity against Staphylococcus aureus XU212 assessed as tetracycline MIC at 30 mg/L by broth dilution assay (reference value: […]). It is filed as functional.
Assay [17] relates to Staphylococcus aureus. The experiment in a line: Potentiation of norfloxacin-induced antibacterial activity against Staphylococcus aureus 1199B assessed as fold reduction in norfloxacin MIC at 30 mg/L by broth dilution assay relative to norfloxacin alone. The format is functional.

The source made the active and inactive calls. The rule behind the calls is not given here.

Data on five compounds can be found in ChEMBL document CHEMBL4627389, “Constituents of Two Dioscorea Species That Potentiate Antibiotic Activity against MRSA” (2020).

On to `COc1cc(CCc2ccccc2O)cc(O)c1OC`, for which the MIC in the assay on Staphylococcus aureus [1] stood at 64 µg/mL; in the assay with Staphylococcus aureus [5] it was 2 µg/mL. Further, the inhibition result in the assay on Staphylococcus aureus [2] is “Active”. For the same compound, the “fold change (FC)” value in the assay on Staphylococcus aureus [3] was 16; in the assay on Staphylococcus aureus [4], 2.
On to `COc1cc(CCC(=O)C[C@H](O)CC(=O)CCc2ccc(O)cc2)ccc1O`, for which the minimum inhibitory concentration (MIC) with Staphylococcus aureus [6] is 16 µg/mL; in the assay on Staphylococcus aureus [7], less than 0.25 µg/mL. Besides, the “fold change (FC)” value is reported as 2 with Staphylococcus aureus [8] and 512 with Staphylococcus aureus [9].
On the same counts, the results for `COc1ccc(/C=C/C(=O)OCCCCCCCCCCCCCCCCCCCCCCCCCCCCCCCC(=O)O)cc1O` are 4 µg/mL, 8 µg/mL, 8 and 16.
As to `COC(=O)[C@H]1[C@H]2C[C@@H]3c4[nH]c5cc(OC)ccc5c4CCN3C[C@H]2C[C@@H](OC(=O)c2cc(OC)c(OC)c(OC)c2)[C@@H]1OC` [RESERPINE], the values for the MIC with Staphylococcus aureus [10] and in the assay with Staphylococcus aureus [13] were 16 µg/mL and 64 µg/mL, respectively. The inhibition result in the assay on Staphylococcus aureus [2] is “Active”. The “fold change (FC)” value in the assay on Staphylococcus aureus [11] and in the assay with Staphylococcus aureus [14] was 2 in each case. Moreover, the inhibition entry in the assay with Staphylococcus aureus [12] was “Dose-dependent effect”.
For `COc1cc(CCC(=O)CC(O)CC(=O)CCc2ccc(O)c(OC)c2)ccc1O`, the minimum inhibitory concentration (MIC) with Staphylococcus aureus [15] was determined as 8 µg/mL; with Staphylococcus aureus [16], 128 µg/mL. For the same compound, the inhibition entry in the assay on Staphylococcus aureus [2] is “Active”. In addition, the “fold change (FC)” value in the assay on Staphylococcus aureus [17] was determined as 4.

Broadly, the MIC is the least concentration at which growth counts as inhibited.
